Data set [1] addresses Human recombinant cyclophilin A (Cyp A) (Homo sapiens (Human), UniProt P62937). Description: Protease-free PPIase assay. On the procedure: Protease-Free PPIase Assay
The protease-free PPIase assay measures the rate of cis to trans conversion of a peptide substrate catalyzed by the enzyme cyclophilin A. Addition of a cyclophilin A inhibitor (e.g., a test compound) slows the catalyzed rate and a Ki value is obtained.
35 mM HEPES pH 7.8, filtered through a 0.2 μm filter. 50 μM DTT was added prior to use each day and then the buffer was stored on ice.
Human recombinant cyclophilin A (Cyp A) (Sigma C3805) enzyme was diluted to 1 μM with enzyme dilution buffer (20 mM HEPES pH 7.8, 40% glycerol, 50 μM DTT and 1 μM BSA) and stored at −20° C.
Succinimide-Ala-Ala-Pro-Phe-p-nitroanilide (SUC-AAPF-pNA) (from Bachem AG, L-1400), 20 mg/ml prepared in 0.5 M LiCl in trifluoroethanol.
The temperature is monitored by the use of a temperature probe. To prevent UV degradation of test compounds, the light below 290 nm was blocked using a glass slide in the light path. 1.5 ml of the assay buffer was put into a 3 ml quartz cuvette and cooled to 10.0±0.1° C. while stirring (vigorous but not so fast as to produce cavitation). The inhibitor was diluted in 100% DMSO, and then added to the assay to a maximum final concentration of 0.5% DMSO in the assay. A blank spectrum was obtained, then 3 μL of enzyme was added (2 nM final concentration) and then 3 μL substrate (60 μM final concentration) added. The absorbance was measured at 330 nm for 300 s or 500 s for blank runs (NOTE: the substrate must be added in one quick injection and the measurements started immediately to minimize mixing errors).
A first order rate equation was fitted to the absorbance data, for each concentration of inhibitor, to obtain the rate constant (the first 10 to 15 seconds were excluded as mixing causes errors in this portion of curve). The catalytic rate was calculated from the enzymatic rate constant minus the background rate constant. An exponential curve was generated using the catalytic rate constants versus the inhibitor concentration to obtain the Ki value for the inhibitor. The Ki value is indicative of the binding affinity between the test compound and cyclophilin A.

Data set [2] concerns the target calcineurin/cyclophilin A (Homo sapiens (Human), UniProt P62937+P63098+Q08209). Briefly: Calcineurin Phosphatase (CaN) Assay (+CypA). Type of data set: biochemical. The text has this: Calcineurin Phosphatase (CaN) Assay
The calcineurin phosphatase assay is a means for estimating the immunosuppressive potential of a test compound. Calcineurin is a serine-threonine protein phosphatase that on activation dephosphorylates members of the nuclear factor of activated T cells (NFAT), which are important in T lymphocyte activation.
To investigate the immunosuppressive potential of exemplary compounds of Formula I, which are cyclosporin analogs, their ability to inhibit calcineurin activity was measured in the presence and absence of Cyp A.
The CaN assay kit used is based on a colorimetric assay for measuring calcineurin phosphatase activity, and it is commercially available (Enzo Life Sciences and Calbiochem). Calmodulin is also required for calcineurin activity and RII phosphopeptide is used as an efficient peptide substrate for calcineurin. […] The detection of free phosphate released is based on the classic Malachite green assay.
Enzo Life Sciences CaN Assay Kit: BML-AK804
Malachite Green: BIOMOL Green™ reagent
Calmodulin (Human, recombinant): was thawed on ice, diluted 1:50 with 2× assay buffer, and then stored on ice.
Calcineurin: was thawed quickly, stored on ice immediately, diluted 1:12.5 with 1× assay buffer, and then stored on ice.
R-II Substrate: 915 μL ultrapure water (UPW) was added to the 1.5 mg vial substrate to give a final concentration of 0.75 mM.
Inhibitors: 2.5 mM inhibitor in 100% DMSO.
Cyp A: recombinant human CypA (Sigma C3805), 1 mg/ml; Recombinant 6-His tagged CypA prepared by the University of Edinburgh was also used.
Inhibitor dilutions: inhibitor compounds were diluted in UPW in polypropylene low-binding 96 well plates at 5× the final assay concentration.
Assay Setup: using the half area 96 well plates supplied with the kit, 10 μl UPW was added to duplicate wells to provide the non-inhibited control. 10 μl of the inhibitor or the inhibitor/Cyp A complex was added to the appropriate sample wells. 25 μl of the 2× assay buffer with CaM was added to all wells, then 5 μl of CaN was added to all wells (40 U per well final concentration) except duplicate ‘no calcineurin blank’ wells to which 5 μL 1× assay buffer was added. The assay plate was placed in an oven at 30° C. for 15 minutes to equilibrate to the reaction temperature. The reaction was started by the addition of 10 μl RII-peptide (0.15 mM final concentration). The reaction was allowed to proceed at 30° C. for a time period in which the reaction is linear for about 60 minutes. The reaction was then terminated by adding 100 μl of the Malachite Green reagent. The color was allowed to develop for 15-30 minutes at room temperature before the absorbance at 620 nm was measured using a plate reader (Molecular Devices—SpectraMax M5). The data were analyzed by subtracting ‘no Calcineurin blank’ from all the absorbance readings and plotting the background corrected absorbances against Log10 inhibitor concentration. A sigmoidal-dose response curve was fitted to the data using GraphPad Prism Software.
It exerts its immunosuppressive activity by binding to cyclophilin A to form a complex, which then binds to calcineurin and thereby inhibits calcineurin activity.

A short description of data set [3]: Water Solubility Assay (measured in pH 7.8 buffer). In kind it is physicochemical. To be noted: 25 °C, pH 7.8, aqueous buffer, kinetic from dmso stock. On the procedure:
Water Solubility Assay (Measured in pH 7.8 Buffer)
The aqueous solubility of a compound of Formula I in buffer (pH 7.8) was measured by recording the onset of precipitation of the compound as a function of increasing concentration. The onset of precipitation, if it occurred, was detected by an increase in absorbance at 650 nm.
Assay Buffer: 35 mM HEPES pH 7.8
Stock solutions of Control and Test Compounds: 10 mM in 100% DMSO.
10 mM stock solutions of control and test compounds were prepared in 100% DMSO.
Assay buffer (247.5 μl) was placed into flat bottomed transparent 96-well plate. For blank samples DMSO (2.5 μl) was added. For test and control samples 2.5 μl of the appropriate DMSO dilution stocks were added to the appropriate well. All test and control compounds were performed in triplicate.
The plates were sealed with adhesive plate seal and shaken at 250 rpm at 25° C. for 18 h on a plate shaker. After incubation the plate seals were taken off and any bubbles observed in wells removed. The plates were read on a SpectraMaxM5 with a 5 s pre-shake at 650 nm. Data files were transferred to the appropriate worksheet and the solubility range of the compounds was calculated from the data. The values shown in the Tables indicate the concentration in μM (micromolar) at which the compound remains in solution.

The mark [4] stands for this setting: in the presence of Cyp A, 1:1 complex with inhibitor, read-out: Calcineurin Phosphatase (CaN) Assay (+CypA) IC50.
[5] abbreviates: read-out: Protease-free PPIase Assay Ki, human recombinant Cyp A, 10 °C.

Converted amounts (≈) assume the structure as drawn. Like-named read-outs stand apart in the source and are kept apart here.

`CC[C@H]1NC(=O)[C@@H]([C@H](O)[C@H](C)Cc2nc3ccccc3[nH]2)N(C)C(=O)[C@@H](C(C)C)N(C)C(=O)[C@@H](CC(C)C)N(C)C(=O)[C@@H](CC(C)C)N(C)C(=O)[C@H](C)NC(=O)[C@@H](C)NC(=O)[C@@H](CC(C)C)N(C)C(=O)[C@@H](C(C)C)NC(=O)[C@H](CC(C)C)N(C)C(=O)[C@@H](C)N(C)C1=O` [Compound 9, [(2S,3R,4R)-1-(1H-Benzimidazol-2-yl)-3-hydroxy-4-methyl-2-(methylamino)pentanoic acid]^1 [(R)-methyl-Sar]^3 cyclosporin A]: the Ki in data set [1] turned out to be 2.3 nM. Besides, the IC50 in data set [2] (setting [4]) was above 10 µM. This compound also registered a solubility at 18 h in data set [3] of 25 to 50 µM (≈ 32.3 to 64.6 µg/mL).
For `CC[C@H]1NC(=O)[C@@H]([C@H](O)[C@H](C)CCOc2ncccn2)N(C)C(=O)[C@@H](C(C)C)N(C)C(=O)[C@@H](CC(C)C)N(C)C(=O)[C@@H](CC(C)C)N(C)C(=O)[C@H](C)NC(=O)[C@@H](C)NC(=O)[C@@H](CC(C)C)N(C)C(=O)[C@@H](C(C)C)NC(=O)[C@H](CC(C)C)N(C)C(=O)[C@@H](C)N(C)C1=O` [Compound 36, [(2S,3R,4R)-3-Hydroxy-4-methyl-2-(methylamino)-6-(pyrimidin-2-yloxy)-hexanoic acid]^1 cyclosporin A] the same measures were 7.7 nM, 1.26 µM and above 100 µM.
Turning to `CC[C@H]1NC(=O)[C@@H]([C@H](O)[C@H](C)Cc2nccn2CCC(F)(F)F)N(C)C(=O)[C@@H](C(C)C)N(C)C(=O)[C@@H](CC(C)C)N(C)C(=O)[C@@H](CC(C)C)N(C)C(=O)[C@H](C)NC(=O)[C@@H](C)NC(=O)[C@@H](CC(C)C)N(C)C(=O)[C@@H](C(C)C)NC(=O)[C@H](CC(C)C)N(C)C(=O)[C@@H](C)N(C)C1=O` [Compound 8, [(2S,3R,4R)-3-Hydroxy-4-methyl-2-(methylamino)-5-[3-(3,3,3-trifluoro-propyl)-3H-imidazol-2-yl]-pentanoic acid]^1 [(R)-methyl-Sar]^3 cyclosporin A], the Ki in data set [1] (setting [5]) came to 7.4 nM. The IC50 in data set [2] (setting [4]) is above 10 µM.
For `CC[C@H]1NC(=O)[C@@H]([C@H](O)[C@H](C)CCCc2cn3c(n2)CCCC3)N(C)C(=O)[C@@H](C(C)C)N(C)C(=O)[C@@H](CC(C)C)N(C)C(=O)[C@@H](CC(C)C)N(C)C(=O)[C@H](C)NC(=O)[C@@H](C)NC(=O)[C@@H](CC(C)C)N(C)C(=O)[C@@H](C(C)C)NC(=O)[C@H](CC(C)C)N(C)C(=O)[C@@H](C)N(C)C1=O` [Compound 19], in data set [1] (setting [5]), the Ki came to 5.4 nM. Further, the IC50 in data set [2] was above 10 µM.
Turning to `CC[C@H]1NC(=O)[C@@H]([C@H](O)[C@H](C)CCCc2ccc(F)cn2)N(C)C(=O)[C@@H](C(C)C)N(C)C(=O)[C@@H](CC(C)C)N(C)C(=O)[C@@H](CC(C)C)N(C)C(=O)[C@H](C)NC(=O)[C@@H](C)NC(=O)[C@@H](CC(C)C)N(C)C(=O)[C@@H](C(C)C)NC(=O)[C@H](CC(C)C)N(C)C(=O)[C@@H](C)N(C)C1=O` [Compound 14, [(2S,3R,4R)-7-(5-Fluoro-pyridin-2-yl)-3-hydroxy-4-methyl-2-(methylamino)-heptanoic acid]^1 [(R)-methyl-Sar]^3 cyclosporin A], the Ki in data set [1] was 1.5 nM. The IC50 in data set [2] (setting [4]) is 8.75 µM.
In the case of `CC[C@H]1NC(=O)[C@@H]([C@H](O)[C@H](C)CCCc2ncco2)N(C)C(=O)[C@@H](C(C)C)N(C)C(=O)[C@@H](CC(C)C)N(C)C(=O)[C@@H](CC(C)C)N(C)C(=O)[C@H](C)NC(=O)[C@@H](C)NC(=O)[C@@H](CC(C)C)N(C)C(=O)[C@@H](C(C)C)NC(=O)[C@H](CC(C)C)N(C)C(=O)[C@@H](C)N(C)C1=O` [Compound 24], in data set [3], the solubility at 18 h was above 100 µM.
For `CC[C@H]1NC(=O)[C@@H]([C@H](O)[C@H](C)Cc2nc3ccccc3[nH]2)N(C)C(=O)[C@@H](C(C)C)N(C)C(=O)[C@@H](CC(C)C)N(C)C(=O)[C@@H](CC(C)C)N(C)C(=O)[C@H](C)NC(=O)[C@@H](C)NC(=O)[C@@H](CC(C)C)N(C)C(=O)[C@@H](C(C)C)NC(=O)[C@H](CC(C)C)N(C)C(=O)CN(C)C1=O` [Compound 10, [(2S,3R,4R)-1-(1H-Benzimidazol-2-yl)-3-hydroxy-4-methyl-2-(methylamino)pentanoic acid]^1 cyclosporin A], the solubility at 18 h in data set [3] is 25 to 50 µM (≈ 32 to 63.9 µg/mL).

As a reminder, the Ki is the equilibrium dissociation constant of an inhibitor or competing ligand from its target. For orientation: IC50 means the midpoint of a concentration-inhibition curve. As usually defined, the solubility is how much of the substance goes into solution per volume. A high value points to a readily soluble substance.

For the origin of these results see patent US10077289B2, “Cyclosporins modified on the MeBmt sidechain by heterocyclic rings” (priority 2015, dated 2018).
